The text below walks through data of patent US7988984B2, “Insect repellent and attractant and auto-thermostatic membrane vapor control delivery system” (Energy Related Devices, Inc., priority 2005, dated 2011).

For data set [1], the system named is mosquitoes. The experiment in a line: Mosquitoes tracking and locating a human with a fresh coating of DEET on the skin. Type of data set: in vivo. The conditions noted are these: fresh coating of DEET mosquito repellent on skin.
Data set [2] concerns mosquitoes. The data set can be described thus: Mosquito behaviour at decoy band with a DEET-filled ampoule. Type of data set: in vivo. The conditions noted are these: only DEET used in ampoule of decoy band. From the text:
Initially the scents are designed to attract the mosquitoes preferentially to the band 1. When the mosquito is nearing contact the DEET will interfere with the chemical sensors of the mosquito and they will use only infrared and visual cues. If she is close enough, within roughly three meters, she will be attracted to the dark pupil pattern 5 and infrared emissions on the band 1 and at close range land on the border area 3 of red or pink and the white area 4 of the decoy. If not close enough for visual cues she may then wander off with some dose of DEET to hamper her long-range ability to find prey. By landing on the decoy 3,4,5 the Mosquito will obtain a high concentration of DEET vapor disabling and interfering with her chemical sensors.
Chemicals such as citronella may confuse the mosquito's appetite. […] If the user moves or brushes the mosquito away this may be sufficient to put them far enough away from visual cues to attack again, reducing the chances that she will be able to find an authentic victim. The ampoules 7, 8 can be designed with a desired diffusion delivery rate of DEET and scents 10, 28 in sufficient volume to effectively deliver a steady chemical vapor for days.

The conditions of data set [3]: applied on the skin; from the literature search; cited from earlier work.
The conditions of data set [4]: highest dose (most concentrated DEET sold); cited from earlier work.

In the case of `CCN(CC)C(=O)c1cccc(C)c1` [DEET, N,N-diethyl-3-methylbenzamide], in data set [1], the “ability of mosquitoes to track and locate a human” value was “still able to track and locate a human”. Moreover, in data set [2], the “mosquito behaviour toward the decoy” value is given as “repeatably attacking the decoy”. Moreover, the “fraction of DEET absorbed through the skin” value in data set [3] is listed as 6-15%. Moreover, the “time DEET remains on the skin” value in data set [4] is on record as “roughly 8 hours”.
